{
  "source": "patent US10028900B2",
  "about": "“Photostable sunscreen composition for topical application” (KANCOR INGREDIENTS LTD, priority 2014, dated 2018)",
  "origin": "cited, not measured here",
  "conditions": "oil / water",
  "data": [
    {"smiles": "COc1ccc(C(=O)CC(=O)c2ccc(C(C)(C)C)cc2)cc1", "note": "[Avobenzone, 1-(4-methoxyphenyl)-3-(4-tert-butylphenyl)propane-1,3-dione]", "values": [
      {"measurement": "Solubility (in words)", "value": "oil soluble and water insoluble"}
    ]},
    {"smiles": "CCCCC(CC)COC(=O)/C=C/c1ccc(OC)cc1", "note": "(centres unmarked) [Octyl-methoxy cinnamate, 2-ethylhexyl (2E)-3-(4-methoxyphenyl) prop-2-enoate]", "values": [
      {"measurement": "Solubility (in words)", "value": "oil soluble and water insoluble"}
    ]}
  ]
}
